Source: article PMC7914897, “Cytotoxic Potential of a-Azepano- and 3-Amino-3,4-SeCo-Triterpenoids” (International Journal of Molecular Sciences, 2021)

Tests used:
[1] = tested on: SR (Leukemia); assay: NCI-60 screen (SRB, 48 h); type: cell-based
[2] = tested on: MDA-MB-435 (Melanoma); assay: NCI-60 screen (SRB, 48 h); type: cell-based; settings: Homo sapiens
[3] = tested on: Leukemia subpanel; assay: cells; settings: Homo sapiens
[4] = tested on: OVCAR-3 (Ovarian cancer); assay: cells; settings: Homo sapiens
[5] = tested on: Melanoma subpanel; assay: NCI-60 screen, subpanel; settings: Homo sapiens
[6] = tested on: Prostate cancer subpanel; assay: NCI-60 screen, subpanel; settings: Homo sapiens
[7] = tested on: CCRF-CEM (Leukemia); assay: NCI-60 screen (SRB, 48 h); settings: Homo sapiens
[8] = tested on: K-562 (Leukemia); assay: NCI-60 screen (SRB, 48 h); settings: Homo sapiens
[9] = tested on: MOLT-4 (Leukemia); assay: NCI-60 screen (SRB, 48 h); settings: Homo sapiens
[10] = tested on: RPMI-8226 (Leukemia); assay: NCI-60 screen (SRB, 48 h); settings: Homo sapiens
[11] = tested on: HOP-92 (NSC lung cancer); assay: NCI-60 screen (SRB, 48 h); settings: Homo sapiens
[12] = tested on: NCI-H226 (NSC lung cancer); assay: NCI-60 screen (SRB, 48 h); settings: Homo sapiens
[13] = tested on: COLO 205 (Colon cancer); assay: NCI-60 screen (SRB, 48 h)
[14] = tested on: HCC-2998 (Colon cancer); assay: NCI-60 screen (SRB, 48 h); settings: Homo sapiens
[15] = tested on: HCT-15 (Colon cancer); assay: NCI-60 screen (SRB, 48 h); settings: Homo sapiens
[16] = tested on: HT29 (Colon cancer); assay: NCI-60 screen (SRB, 48 h); settings: Homo sapiens
[17] = tested on: KM12 (Colon cancer); assay: NCI-60 screen (SRB, 48 h); settings: Homo sapiens
[18] = tested on: SW-620 (Colon cancer); assay: NCI-60 screen (SRB, 48 h); settings: Homo sapiens
[19] = tested on: SNB-19 (CNS cancer); assay: NCI-60 screen (SRB, 48 h); settings: Homo sapiens
[20] = tested on: MALME-3M (Melanoma); assay: NCI-60 screen (SRB, 48 h); settings: Homo sapiens
[21] = tested on: SK-MEL-5 (Melanoma); assay: NCI-60 screen (SRB, 48 h); settings: Homo sapiens
[22] = tested on: UACC-257 (Melanoma); assay: NCI-60 screen (SRB, 48 h); settings: Homo sapiens
[23] = tested on: TK-10 (Renal cancer); assay: NCI-60 screen (SRB, 48 h); settings: Homo sapiens
[24] = tested on: UO-31 (Renal cancer); assay: NCI-60 screen (SRB, 48 h); settings: Homo sapiens
[25] = tested on: DU-145 (Prostate cancer); assay: NCI-60 screen (SRB, 48 h); settings: Homo sapiens
[26] = tested on: MCF7 (Breast cancer); assay: NCI-60 screen (SRB, 48 h); settings: Homo sapiens
[27] = tested on: HS 578T (Breast cancer); assay: NCI-60 screen (SRB, 48 h); settings: Homo sapiens
[28] = tested on: T-47D (Breast cancer); assay: NCI-60 screen (SRB, 48 h); settings: Homo sapiens, T47D

SMILES: CC1(C)CC[C@]2(CO)CC[C@]3(C)C(=CC[C@@H]4[C@@]5(C)CCCNC(C)(C)[C@@H]5CC[C@]43C)[C@@H]2C1 [Compound 3, azepanoerythrodiol]
- TGI [1]: > 100 µM
- GI50 ([1]; Homo sapiens): 2.22 µM
- CC50 ([1]; Homo sapiens, read-out: LC50 (the source's name)): > 100 µM
- GI50 ([2]; MDA-MB-435): 1.71 µM
- IC (TGI) ([2]; MDA-MB-435, 48 h, read-out: TGI): 3.36 µM
- CC50 ([2]; MDA-MB-435, read-out: LC50 (the source's name)): 6.59 µM
- IC (TGI) ([3]; 48 h, read-out: TGI MG_MID): 54.8 µM
- GI50 ([3]; read-out: GI50 MG_MID): 2.03 µM
- CC50 ([3]; read-out: LC50 MG_MID): > 100 µM
- GI50 ([4]; OVCAR-3): 1.96 µM
- IC (TGI) ([4]; OVCAR-3, 48 h, read-out: TGI): 3.84 µM
- CC50 ([4]; OVCAR-3, read-out: LC50): 7.52 µM
- IC (TGI) ([5]; 48 h, read-out: TGI MG_MID): 4.31 µM
- GI50 ([5]; read-out: GI50 MG_MID): 2.05 µM
- CC50 ([5]; read-out: LC50 MG_MID): 12.2 µM
- IC (TGI) ([6]; 48 h, read-out: TGI MG_MID): 4.02 µM
- GI50 ([6]; read-out: GI50 MG_MID): 1.89 µM
- CC50 ([6]; read-out: LC50 MG_MID): 8.54 µM
- GI50 [7]: 2.41 µM
- IC (TGI) ([7]; 48 h, read-out: TGI): 8.96 µM
- CC50 ([7]; read-out: LC50): > 100 µM
- GI50 ([8]; K562): 0.4 µM
- IC (TGI) ([8]; K562, 48 h, read-out: TGI): > 100 µM
- CC50 ([8]; K562, read-out: LC50): > 100 µM
- GI50 ([9]; MOLT-4): 2.5 µM
- CC50 ([9]; MOLT-4, read-out: LC50): > 100 µM
- GI50 ([10]; RPMI-8226): 2.71 µM
- IC (TGI) ([10]; RPMI-8226, 48 h, read-out: TGI): 10.1 µM
- CC50 ([10]; RPMI-8226, read-out: LC50): > 100 µM
- GI50 ([11]; HOP-92): 1.36 µM
- IC (TGI) ([11]; HOP-92, 48 h, read-out: TGI): 30.7 µM
- CC50 ([11]; HOP-92, read-out: LC50): 6.92 µM
- GI50 ([12]; NCI-H226): 1.13 µM
- IC (TGI) ([12]; NCI-H226, 48 h, read-out: TGI): 28.5 µM
- CC50 ([12]; NCI-H226, read-out: LC50): 71.8 µM
- Growth % of the Most Sensitive Cell Lines ([13]; COLO 205, 1 dose 10 µM): −88.44%
- GI50 ([13]; Homo sapiens, COLO 205): 1.83 µM
- IC (TGI) ([13]; Homo sapiens, COLO 205, 48 h, read-out: TGI): 3.25 µM
- CC50 ([13]; Homo sapiens, COLO 205, read-out: LC50): 5.77 µM
- GI50 ([14]; HCC 2998): 1.89 µM
- IC (TGI) ([14]; HCC 2998, 48 h, read-out: TGI): 3.81 µM
- CC50 ([14]; HCC 2998, read-out: LC50): 7.69 µM
- GI50 ([15]; HCT-15): 3.06 µM
- IC (TGI) ([15]; HCT-15, 48 h, read-out: TGI): 1.04 µM
- CC50 ([15]; HCT-15, read-out: LC50): 42.3 µM
- GI50 ([16]; HT-29): 1.59 µM
- IC (TGI) ([16]; HT-29, 48 h, read-out: TGI): 3.62 µM
- CC50 ([16]; HT-29, read-out: LC50): 8.23 µM
- GI50 ([17]; KM12): 2.07 µM
- IC (TGI) ([17]; KM12, 48 h, read-out: TGI): 4.26 µM
- CC50 ([17]; KM12, read-out: LC50): 8.78 µM
- GI50 ([18]; SW-620): 1.91 µM
- IC (TGI) ([18]; SW-620, 48 h, read-out: TGI): 4 µM
- CC50 ([18]; SW-620, read-out: LC50): 8.35 µM
- GI50 ([19]; SNB-19): 11.7 µM
- IC (TGI) ([19]; SNB-19, 48 h, read-out: TGI): 2.61 µM
- CC50 ([19]; SNB-19, read-out: LC50): 58.1 µM
- GI50 [20]: 2.02 µM
- IC (TGI) ([20]; 48 h, read-out: TGI): 3.56 µM
- CC50 ([20]; read-out: LC50): 6.27 µM
- GI50 ([21]; SK-MEL-5): 1.68 µM
- IC (TGI) ([21]; SK-MEL-5, 48 h, read-out: TGI): 3.14 µM
- CC50 ([21]; SK-MEL-5, read-out: LC50): 5.86 µM
- GI50 ([22]; UACC-257): 2.49 µM
- IC (TGI) ([22]; UACC-257, 48 h, read-out: TGI): 6.47 µM
- CC50 ([22]; UACC-257, read-out: LC50): 27.6 µM
- GI50 ([23]; TK-10): 4.64 µM
- IC (TGI) ([23]; TK-10, 48 h, read-out: TGI): 16.7 µM
- CC50 ([23]; TK-10, read-out: LC50): 49.9 µM
- GI50 ([24]; UO-31): 10.5 µM
- IC (TGI) ([24]; UO-31, 48 h, read-out: TGI): 25.5 µM
- CC50 ([24]; UO-31, read-out: LC50): 62.1 µM
- GI50 ([25]; DU-145): 2.3 µM
- IC (TGI) ([25]; DU-145, 48 h, read-out: TGI): 4.7 µM
- CC50 ([25]; DU-145, read-out: LC50): 9.61 µM
- GI50 ([26]; MCF7): 2.16 µM
- IC (TGI) ([26]; MCF7, 48 h, read-out: TGI): 5.54 µM
- CC50 ([26]; MCF7, read-out: LC50): 22.7 µM
- GI50 [27]: 6.16 µM
- IC (TGI) ([27]; 48 h, read-out: TGI): 24.7 µM
- CC50 ([27]; read-out: LC50): 77.4 µM
- GI50 [28]: 4.08 µM
- IC (TGI) ([28]; 48 h, read-out: TGI): 16.3 µM
- CC50 ([28]; read-out: LC50): 48.6 µM
